Source: patent US12435083B2, “Cyclopropyl-(hetero)aryl-substituted ethylsulphonyl-pyridine derivatives” (BOEHRINGER INGELHEIM VETMEDICA GMBH, priority 2021, dated 2025)
Read-outs that look alike come from different tables or passages of the source.

Legend:
[1] = test system: adult Rhipicephalus sanguineus ticks; experiment: Contact activity against adult Rhipicephalus sanguineus (coated vial, mortality at 48 h); settings: for activity against ticks (tick contact assay), in words: in vitro profiling
Description: Example 5: Screening Method to Test Contact Activity of Compounds of Formula (I) Against Adult Rhipicephalus sanguineus
Compounds of formula (I) formulated in 100% DMSO were diluted in a solution containing acetone and Triton X-100 (0.02%). The resulting formulation was used to coat the inner walls of glass scintillation vials and the filter paper covering the cap of the vial. Once dried, ten adult R. sanguineus ticks were added to the vials. The vials were incubated at 24° C., 95% relative humidity, and 12 hours of light/12 hours of dark until evaluation. Ticks were visually evaluated for mortality at 48 hours post-treatment. Compound efficacy at a given dose is expressed as percentage mortality. A dose response series was implemented to determine EC50 values.
(§1) The four structurally closest prior art compounds (A), (B), (C) and (D) specifically excluded from the scope of formula (I) were characterized vis-a-vis selected compounds of formula (I) with regard to their potency in in vitro screening assays against fleas (Ctenocehalides felis) and ticks (Rhipicephalus sanguineus).
(§2) However, as explained above, spectrum of action against this range of species (i.e. fleas and ticks) is a desirable property of ectoparasiticides for veterinary use. In the following table 1 comparative experimental data of the in vitro assays are shown regarding flea membrane feeding (ingestion, blood feeding) activity against Ctenocephalides felis and contact activity against Rhipicephalus sanguineus.

[2] = test system: adult Ctenocephalides felis fleas; experiment: Ingestion activity (flea membrane feeding, blood feeding) against adult Ctenocephalides felis; settings: for activity against fleas (flea membrane feeding and flea contact assays), in words: in vitro profiling
Excerpt: Example 6: Screening Method to Test Ingestion Activity of Compounds of Formula (I) Against Adult Ctenocephalides felis
as §1
It is important to note that compounds that show better activity versus ticks are more desirable in the animal health field, as ticks are more difficult to control than fleas. Noteworthy, in particular with regard to fleas the illustrated comparative data are based on a flea membrane feeding (ingestion, blood feeding) assay. Data from this assay are more relevant for compounds intended to be delivered systemically to an animal via oral or injectable routes. Membrane feeding assays differ to primary screening laboratory contact assays in that the latter only measure the effect of the direct contact of selected compounds on the parasite, such as the flea or the tick. The information derived from laboratory contact assays is strictly limited to the ability of the compound to be absorbed through the parasite surface and to reach its molecular target, and no information can be gleaned from these contact assays as to whether the compound would also be active when presented orally to the ectoparasite itself in a blood meal, such as with the membrane feeding assay, and certainly not when administered orally to an animal host (e.g. “in vivo”) with subsequent exposure to the ectoparasite.
as §2

[3] = test system: adult Ctenocephalides felis fleas; experiment: Contact activity against adult Ctenocephalides felis (treated surface, motility by machine vision, 24 h); settings: treated surface, 24h, read-out: EC80 (% motility reduction, adult C. felis, contact)
Excerpt: Example 7: Screening Method to Test Contact Activity of Compounds of Formula (I) Against Adult Ctenocephalides felis

Plutella xylostella = experiment: Insecticidal test on Plutella xylostella (Chinese cabbage seedling dip); settings: 144 h, 500 ppm, seedling dip, 6 days after dip treatment, read-out: activity level (corrected mortality rate), Plutella xylostella
Description: Example 12: Insecticidal Test on Plutella xylostella
The compounds of formula (I) of the present invention or salts thereof were separately dispersed in water and diluted to 500 ppm. Ten adults of Plutella xylostella were released onto Chinese cabbage seedlings and allowed to lay eggs thereon. 2 days after the release of the adults, the seedling was dipped in the dispersion for about 30 seconds. After air dried, the seedling was kept in a room at 25° C. 6 days after the dip treatment, the numbers of the dead and alive insects were counted. The corrected mortality rate was calculated according to the following formula and the insecticidal activity was evaluated according to the following criteria. Corrected mortality rate (%)=100×(Survival rate in an untreated plot−Survival rate in a treated plot)/Survival rate in an untreated plot • A: the corrected mortality rate is 100% • B: the corrected mortality rate is 90 to 99% • C: the corrected mortality rate is 80 to 89% • D: the corrected mortality rate is 50 to 79%

[4] = Rhipicephalus sanguineus, contact assay, >100 μM = not active at the top concentration, read-out: R. sanguineus contact activity EC50
[5] = Ctenocephalides felis, 24 h, flea membrane feeding (ingestion, blood feeding) assay, EC80, read-out: C. felis membrane feeding (ingestion/blood feeding) activity EC80
[6] = Rhipicephalus sanguineus, 48 hours post-treatment, coated vial, read-out: EC50 (percentage mortality, adult R. sanguineus, contact)
[7] = Ctenocephalides felis, bovine blood, 24h post treatment, read-out: EC80 (% motility reduction, adult C. felis, ingestion via membrane feeding)
[8] = contact assay, >100 μM = not active at the top concentration, read-out: R. sanguineus contact activity EC50
[9] = flea membrane feeding (ingestion, blood feeding) assay, EC80, read-out: C. felis membrane feeding (ingestion/blood feeding) activity EC80
[10] = flea membrane feeding (ingestion, blood feeding) assay, EC80

CCS(=O)(=O)c1cc(-c2ccc(C3(C#N)CC3)cc2)cnc1-n1ncc2ccc(C(F)(F)F)cc2c1=O [(A), reference compound]
activity against ticks (tick contact assay), in words ([1]; Rhipicephalus sanguineus): no activity | EC50 [1, 4]: > 100 µM | EC80 [2, 5]: > 10 µM | activity against fleas (flea membrane feeding and flea contact assays), in words ([2]; Ctenocephalides felis): some activity

CCS(=O)(=O)c1cc(-c2ccc(C3(C#N)CC3)cc2)cnc1-n1nc2ccc(C(F)(F)F)cn2c1=O [(B), reference compound]
activity against ticks (tick contact assay), in words ([1]; Rhipicephalus sanguineus): no activity | EC50 [1, 4]: > 100 µM | EC80 [2, 5]: > 10 µM | activity against fleas (flea membrane feeding and flea contact assays), in words ([2]; Ctenocephalides felis): some activity

CCS(=O)(=O)c1cc(-c2nc(C)cc(C3CC3)n2)cnc1-c1nc2cc(C(F)(F)F)ncc2n1C [(C), reference compound]
activity against ticks (tick contact assay), in words ([1]; Rhipicephalus sanguineus): no activity | EC50 [1, 4]: > 100 µM | EC80 [2, 5]: > 10 µM | activity against fleas (flea membrane feeding and flea contact assays), in words ([2]; Ctenocephalides felis): some activity

CCS(=O)(=O)c1cc(-c2ccc(C3CC3)cn2)cnc1-n1ncc(OCC(F)(F)C(F)(F)F)cc1=O [(D), reference compound]
activity against ticks (tick contact assay), in words ([1]; Rhipicephalus sanguineus): no activity | EC50 [1, 4]: > 100 µM | EC80 [2, 5]: > 10 µM | activity against fleas (flea membrane feeding and flea contact assays), in words ([2]; Ctenocephalides felis): some activity

CCS(=O)(=O)c1cc(-c2cc(C3CC3)ccn2)cnc1-c1nc2cc3c(cc2n1C)OC(F)(F)O3 [Compound 14, 6-(4-cyclopropyl-5′-(ethylsulfonyl)-[2,3′-bipyridin]-6′-yl)-2,2-difluoro-5-methyl-5H-[1,3]dioxolo[4′,5′:4,5]benzo[1,2-d]imidazole]
EC80 [3]: 1 to 10 µM

CCS(=O)(=O)c1cc(-c2ccc(C3CC3)cc2)cnc1-n1cc2ccc(C(F)(F)F)cc2n1 [Compound 46, 2-[5-(4-cyclopropylphenyl)-3-(ethanesulfonyl)pyridin-2-yl]-6-(trifluoromethyl)indazole]
EC50 [1, 6]: 10 to 100 µM | EC50 [1, 4]: 10 to 100 µM | EC80 [2, 5]: 1 to 10 µM | EC80 [2, 7]: 1 to 10 µM

CCS(=O)(=O)c1cc(-c2ccc(C3CC3)cc2)cnc1-n1cc2ncc(C(F)(F)F)cc2n1 [Compound 48, 5-(4-cyclopropylphenyl)-3-(ethanesulfonyl)-2-[6-(trifluoromethyl)pyrazolo[4,3-b]pyridin-2-yl]pyrid-ine]
EC80 [3]: 1 to 10 µM

CCS(=O)(=O)c1cc(-c2ccc(C3CC3)cc2)cnc1-c1cc2n(C(F)F)cc(C(F)(F)F)cc-2n1 [Compound 97]
EC50 [1, 4]: 10 to 100 µM | EC80 [2, 5]: < 1 µM | mortality at 500 ppm (Plutella xylostella): 100%

CCS(=O)(=O)c1cc(-c2ccc(C3CC3)cc2)cnc1-c1ncc(OCC(F)(F)C(F)(F)F)c(=O)n1C [Compound 110, 2-[5-(4-cyclopropylphenyl)-3-(ethanesulfonyl)pyridin-2-yl]-3-methyl-5-(2,2,3,3,3-pentafluoropropoxy)pyrimidin-4-one]
EC80 [3]: 1 to 10 µM

CCS(=O)(=O)c1cc(-c2ccc(C3(F)CC3)nc2)cnc1-c1nc2cc(C(F)(F)F)n(C3CC3)c(=O)c2n1C [Compound 176, 5-cyclopropyl-2-[5-(ethanesulfonyl)-6′-(1-fluorocyclopropyl)-[3,3′-bipyridin]-6-yl]-3-methyl-6-(trifluoromethyl)imidazo[4,5-c]pyridin-4-one]
EC50 [1, 6]: 10 to 100 µM | EC80 [2, 7]: 1 to 10 µM

CCS(=O)(=O)c1cc(-c2ccc(C3CC3)cc2)cnc1-n1ncc2ncc(C(F)(F)C(F)(F)F)cc21 [Compound 191, 5-(4-cyclopropylphenyl)-3-(ethanesulfonyl)-2-[6-(1,1,2,2,2-pentafluoroethyl)-1H-pyrazolo[4,3-b]pyridin-1-yl]pyridine]
mortality at 500 ppm (Plutella xylostella): 100%

C=CCn1cc(C(F)(F)F)cc2nc(-c3ncc(-c4ccc(C5(C#N)CC5)cc4)cc3S(=O)(=O)CC)c(F)c1-2 [Compound 198, 1-{4-[5-(ethanesulfonyl)-6-[3-fluoro-4-(prop-2-en-1-yl)-6-(trifluoromethyl)pyrrolo[3,2-b]pyridin-2-yl]pyridin-3-yl]phenyl}cyclopropane-1-carbonitrile]
EC80 [2, 7]: 1 to 10 µM

CCS(=O)(=O)c1cc(-c2ccc(C3CC3)cc2)cnc1-c1nc2cc(C(F)(F)F)cn(CC(F)F)c-2c1F [compound 12]
EC50 [1, 8]: 10 to 100 µM | EC80 [2, 9]: <1 µM

CCS(=O)(=O)c1cc(-c2ccc(C3(C#N)CC3)cc2)cnc1-c1nc2cc(C(F)(F)C(F)(F)F)cnc2n1C [compound 80]
EC50 [1, 8]: 10 to 100 µM | EC80 [2, 9]: <1 µM

CCS(=O)(=O)c1cc(-c2ccc(C3(C#N)CC3)cc2)cnc1-c1nc2cc(C(F)(F)F)n(C3CC3)c(=O)c2n1C [compound 88]
EC50 [1, 8]: 10 to 100 µM | C. felis membrane feeding (ingestion/blood feeding) activity EC80 [2, 10]: 1 to 10 µM

CCS(=O)(=O)c1cc(-c2ccc(C3CC3)nc2)cnc1-c1nc2cc(C(F)(F)F)n(C3CC3)c(=O)c2n1C [compound 89]
EC50 [1, 8]: 10 to 100 µM | C. felis membrane feeding (ingestion/blood feeding) activity EC80 [2, 10]: 1 to 10 µM

CCn1cc(C(F)(F)F)cc2nc(-c3ncc(-c4cccc(C5CC5)n4)cc3S(=O)(=O)CC)cc1-2 [compound 113]
mortality at 500 ppm (Plutella xylostella): 100%

CCS(=O)(=O)c1cc(-c2ccc(C3(F)CC3)cc2)cnc1-c1nc2cc(C(F)(F)F)n(C3CC3)c(=O)c2n1C [compound 124]
EC50 [1, 8]: 10 to 100 µM | C. felis membrane feeding (ingestion/blood feeding) activity EC80 [2, 10]: 1 to 10 µM

CCS(=O)(=O)c1cc(-c2ccc(C3(C#N)CC3)nc2)cnc1-c1nc2cc(C(F)(F)F)n(C3CC3)c(=O)c2n1C [compound 133]
EC50 [1, 8]: 10 to 100 µM | C. felis membrane feeding (ingestion/blood feeding) activity EC80 [2, 10]: 1 to 10 µM

CCS(=O)(=O)c1cc(-c2ccc(C3CC3(F)F)cc2)cnc1-c1nc2cc(C(F)(F)C(F)(F)F)nnc2n1C (stereo not shown) [compound 135]
EC50 [1, 8]: 10 to 100 µM | C. felis membrane feeding (ingestion/blood feeding) activity EC80 [2, 10]: 1 to 10 µM

CCS(=O)(=O)c1cc(-c2cc(C3CC3)nc(C)n2)cnc1-c1nc2cc(C(F)(F)C(F)(F)F)nnc2n1C [compound 142]
EC50 [1, 8]: 10 to 100 µM | C. felis membrane feeding (ingestion/blood feeding) activity EC80 [2, 10]: 1 to 10 µM

CCS(=O)(=O)c1cc(-c2ccc(C3CC3)nn2)cnc1-c1nc2cc(C(F)(F)C(F)(F)F)cnc2n1C [compound 153]
EC50 [1, 8]: 10 to 100 µM | C. felis membrane feeding (ingestion/blood feeding) activity EC80 [2, 10]: 1 to 10 µM

CCS(=O)(=O)c1cc(-c2nccc(C3CC3)n2)cnc1-c1nc2cc(C(F)(F)C(F)(F)F)cnc2n1C [compound 165]
EC50 [1, 8]: 10 to 100 µM | EC80 [2, 9]: <1 µM

CCS(=O)(=O)c1cc(-c2cc(C3CC3)nc(C)n2)cnc1-c1nc2cc(C(F)(F)C(F)(F)F)cnc2n1C [compound 166]
EC50 [1, 8]: 10 to 100 µM | EC80 [2, 9]: <1 µM

CCS(=O)(=O)c1cc(-c2cccnc2C2CC2)cnc1-c1nc2cc(C(F)(F)C(F)(F)F)cnc2n1C [compound 169]
EC50 [1, 8]: 10 to 100 µM | C. felis membrane feeding (ingestion/blood feeding) activity EC80 [2, 10]: 1 to 10 µM

CCS(=O)(=O)c1cc(-c2ccc(C3CC3)nc2)cnc1-c1nc2cc(SC(F)(F)F)nnc2n1C [compound 186]
EC50 [1, 8]: < 10 µM | EC80 [2, 9]: <1 µM

CCn1c(=O)c(C(F)(F)F)cc2nc(-c3ncc(-c4ccc(C5CC5)cc4)cc3S(=O)(=O)CC)n(C)c21 [compound 214, 2-[5-(4-cyclopropylphenyl)-3-(ethanesulfonyl)pyridin-2-yl]-4-ethyl-3-methyl-6-(trifluoromethyl)-3H,4H,5H-imidazo[4,5-b]pyridin-5-one]
EC80 [2, 7]: < 1 µM
